In test [1] the test system is BC3 Hl cells. Briefly: Diacylglycerol and phosphatidic acid production in labeled BC3 Hl myocytes. The class given is cell-based, murine. The procedure: FIG. 12--Time Course of Diacylglycerol and Phosphatidic Acid Production in Response to Insulin. Myocytes were incubated for 20 hrs. in serum free DMEM with [9,10^3 H]myristic acid (New England Nuclear), complexed 1:1 to bovine serum albumin. Insulin was added to cells in fresh media for the designated intervals, and reactions were stopped by removal of media and addition of 1 ml chloroform/methanol/1N HCl (200:100:1). 0.6ml H2 O was added and upper aqueous phases were discarded following centrifugation at 500×g for 5 minutes. The lower, organic phases were dried under N2 and resuspended in 1 ml diethyl ether followed by addition of 1 […]. The upper ether phase was aspirated and the lower phase reextracted with 1 ml diethyl ether. The combined ether phases, containing diacylglycerol, were dried under N2, resuspended in chloroform and spotted on silica gel G plates which were preactivated at 60° C. for 1 hr. Plates were twice developed in petroleum ether/diethyl ether/glacial acetic acid (70:30:2). Five ug of unlabeled dimyristoylglycerol were added to each sample. Spots were visualized by iodine staining. To the lower aqueous phases from the ether extraction were added 1 ml of chloroform/methanol (2:1). Following centrifugation, the resulting upper aqueous phases were discarded and the lower organic phases dried under N2, resuspended in chloroform/methanol/H2 O (9:7:2) and spotted on "soft plus" silica gel plates. These were developed in chloroform/pyridine/70% formic acid (50:30:7), and phosphatidic acid was identified by an iodine stained standard. Lipids were scraped and radioactivity determined in a liquid scintillation counter.
BC3 Hl cells were cultured on collagen coated multiwell plates or petri dishes in Dulbecco's minimal essential medium (DMEM) supplemented with 20% Nu serum or 10% fetal calf serum. Cells were grown to maximal density and confluence, at which time they become responsive to insulin. Radiolabeled precursors were added for 20 hrs. in serum-free medium. [^3 H]Myristic and arachidonic acids were complexed 1:1 to bovine serum albumin prior to addition.
Following preincubations with the appropriate isotopes, cells were resuspended in DMEM without serum and treated with 10 nM insulin at the designated intervals. Reactions were terminated by the addition of 1 ml chloroform/methanol/1N HCl (200:100:1), followed by 0.5 ml 10 mM formic acid. Following centrifugation at 500 x g for 5 min., the upper phase was discarded. For phospholipid analyses, the lower, organic phase was dried under N2, resuspended in chloroform/methanol/H2 O (9:7:2) and spotted on oxalate impregnated silica gel G plates. These were sequentially developed in chloroform/acetone/methanol/glacial acidic acid/H2 O (10:4:2:2:1) and chloroform/methanol/4N NH4 OH (45:35:10). One cm regions were scraped and eluted with chloroform/methanol (2:1) and counted. Phosphoinositide standards were identified by iodine staining.
For analysis of neutral lipids, the chloroform/methanol organic phases were dried under N2 and resuspended in 1 ml diethyl ether followed by addition of 1 ml 50 mM formic acid. The upper ether phase was aspirated and the lower aqueous phase was reextracted with 1 ml diethyl ether. The pooled ether phases were dried under N2, resuspended in chloroform and spotted on silica gel G plates which were preactiviated at 60° C. for 1 hr. Plates were twice developed in petroleum ether/diethyl ether/glacial acetic acid (70:30:2). Five ug of unlabeled dimyristoyl glycerol, myristic acid and monomyristoyl glycerol were added as carriers to each sample.

The test system of test [2] is cAMP phosphodiesterase. The experiment in a line: Generation of PDE messenger from liver membranes by insulin or PI-PLC; extracts assayed on cAMP phosphodiesterase. The class given is biochemical, rat. The procedure: These were generated from bovine liver particulate fractions by a modification of previously described methods. Particulate fraction was prepared from 100 g of bovine liver, and suspended in […] ammonium bicarbonate, pH 7.4. (Buffer A) at a final concentration of 2-4 mg protein/ml. This solution was incubated with […] for 10 min at 37° C., acidified to pH 4.0 with formic acid and sedimented at 45,000 g for 20 min. An equal volume of chloroform/methanol (2:1) was added to the supernatant, and the upper phase was aspirated and methanol was evaporated.
In the tests the results of which are tabulated above, liver membranes were treated as indicated for 10 min at 37° C., centrifuged and supernatants were extracted and purified up to and including the Dowex 50WX-4 step as described earlier herein under "Experimental Frocedures".
Partially purified extracts were assayed for ability to modulate cAMP phosphodiesterase. Basal activity was 56.2 pmoles/mg protein^-1 -min^-1.

As for Insulin: monocomponent bovine insulin, the “generation of [3H]stearyl diacylglycerol” value in test [1] was “no detectable effect”. For the same substance, in test [1] ([3H]myristate labeled cells), the “change in [3H]myristoyl diacylglycerol” value is listed as “rapid increase” and the “time of maximal increase in labeled diacylglycerol” value was found to be 1 min. Besides, the “change in [3H]arachidonyl diacylglycerol” value in test [1] (cells incubated with [3H]arachidonic acid) is “slow increase”. The “increase in levels of [3H]myristate phosphatidic acid” value in test [1] (insulin, achieved by 5 minutes) is recorded as 2 fold. For the same substance, the “maximal increase of labeled diacylglycerol over basal” value in test [1] (insulin, by 5-10 minutes) stood at 50%. Besides, the “increase in [3H]myristate diacylglycerol” value in test [1] (insulin, within 1 minute) is given as 40%. Moreover, the “stimulation/increase of production of PDE modulating activity from membranes” value in test [2] (after partial purification, PI-PLC 1.0 ug/ml) is 4 fold. In test [2] (extract of liver membranes treated 10 min at 37° C. (1.0 nM Insulin, PI-PLC), purified up to Dowex 50WX-4, basal 56.2, untreated membranes 78.5), the “PDE Activity” value came out at 138.0 pmol mg protein^-1 min^-1.

Values taken from patent US4839466A, “Insulin activity messengers” (The Rockefeller University, priority 1987, dated 1989).
